Experimental data published in patent US12156859B2, “Methods of and compositions for treating obesity, obesity-related diseases or cancers using a N6-methyllysine/l-lysine mixture” (Tainnovation Inc, priority 2021, dated 2024).
“Also recorded” adds a separate entry of the source.

What was measured:
DUSP6 / cold microbiota = assay: 16S rRNA microbiota analysis of BCI-CR versus Vehicle-CR mice (cold-room temperature transition); type: in vivo; conditions: during the cold-RT transition, BCI-CR vs Vehicle-CR, 16S rRNA sequencing
Source text: FIG. 1B illustrates the cold induced gut bacteria that is regulated by DUSP6 inhibition by injecting DUSP6 inhibitor, (E/Z)-BCI hydrochloride, into the mice underwent cold-room temperature (CR) transition.
To search the potential Nε-Methyl-L-lysine producers in cold microbiota, we performed the microbiota analysis on 16S rRNA sequencing data of BCI-CR and Vehicle-CR microbiota.

gut microbiota = assay: Gut microbiota control experiment (14-day oral administration); type: in vivo, male C57/BL6 mice
Protocol: 14 days after treatment, the fecal pellets of L-lysine (150 mM), Nε-Methyl-L-lysine (150 mM) (100 ul/mouse/Day) or vehicle (water; 100 ul/mouse/Day) treated mice were collected for DNA extraction. PCR amplification was performed on extracted DNA for 16s rDNA amplicons by using the primers targeting the V3-V4 region (primer set: 341F-805R). 16s rRNA amplicons were sequenced on an Illumina Miseq platform and generated 300 bp paired-end reads. Raw data were obtained with barcodes sequences cleaned up. The sequencing data was analyzed using the QIIME 2 platform (version: 2020.8).
It is orally administered Nε-Methyl-L-lysine (100 μg Nε-Methyl-L-lysine/g body weight/per day) into eight weeks old male C57/BL6 mice for fourteen days. Fourteen days after treatment, perigonadal adipose tissues of vehicle (H2O) treated mice and Nε-Methyl-L-lysine treated mice were collected for qPCR analyses. […] Data are presented as mean±SEM. Mann-Whitney t-tests are used to indicate significant differences between groups. *P<0.05.

Ucp1 and Cpt1b = assay: qRT-PCR of browning marker gene Ucp1 and beta-oxidation gene Cpt1b in white adipose tissue of treated mice; type: in vivo, male C57BL/6J mice; conditions: perigonadal adipose tissue, 14 days after oral treatment, qPCR, vs vehicle
Protocol: (§1) 14 days after treatment, the L-lysine (150 mM), Nε-Methyl-L-lysine (150 mM) (100 ul/mouse/Day) or vehicle (water; 100 ul/mouse/Day) treated mice were sacrificed and the perigonadal white adipose tissue (pWAT) and inguinal white adipose tissue (iWAT) were collected and weighted for measuring the reducing effects of L-lysine, Nε-Methyl-L-lysine and vehicle. To test the browning-activating abilities of L-lysine, Nε-Methyl-L-lysine and vehicle control in pWAT and iWAT of treated mice, total RNA of WAT was extracted by using RNeasy Lipid Tissue kits. The concentration and quality of RNA were measured by NanoDrop spectrophotometer. For qRT-PCR analysis of browning marker gene Ucp1 and beta-oxidation gene Cpt1b, complementary DNA was obtained by using M-MLV Reverse Transcriptase with oligo-dT primers. qRT-PCR was performed with SYBR-green master on a MyGo Pro PCR system.
Beiging and β-oxidation are two major fat-burning mechanism of white adipose tissues controlled by the expression of Ucp-1 and CPT-1 gene respectively. […] It is orally administered Nε-Methyl-L-lysine (100 μg Nε-Methyl-L-lysine/g body weight/per day) into eight weeks old male C57/BL6 mice for fourteen days. 14 days after treatment, perigonadal adipose tissues of vehicle (H2O) treated mice and Nε-Methyl-L-lysine treated mice are collected for qPCR analyses. […] Data are presented as mean±SEM. Mann-Whitney t-tests are used to indicate significant differences between groups. *P<0.05.

[1] = system: adipocytes of pWAT and iWAT; assay: Histological examination of pWAT and iWAT (H&E, Adiposoft adipocyte area and size distribution); type: in vivo, male C57BL/6J mice; conditions: vs vehicle
Protocol: (§2) Tissues were fixed in 4% neutral-buffered formalin (Sigma), paraffin-embedded, sectioned, and stained with hematoxylin and eosin (H&E) or subjected to immunohistochemistry analysis. For adipose tissue, the 5 μm FFPE sections of pWAT and iWAT were deparaffinated and stained with H&E. The mean adipocyte area and adipocyte size distribution were determined by using Adiposoft software. For quantifying lipid droplets in liver tissues, the 5 μm FFPE liver sections were deparaffinated and stained with H&E. The mean lipid droplets area was determined by using Image J software.

[2] = system: perigonadal white adipose tissue (pWAT) and inguinal white adipose tissue (iWAT); assay: Adipose tissues reducing experiment: 14-day oral administration to chow diet-fed mice, body weight and pWAT/iWAT mass; type: in vivo, male C57BL/6J mice; conditions: chow diet-fed male mice, fourteen days
Protocol: To test the browning-activating and WAT-reducing abilities of Nε-Methyl-L-lysine, 8-week-old male C57BL/6J mice were orally administrated of L-lysine (150 mM), Nε-Methyl-L-lysine (150 mM) (100 ul/mouse/Day) or vehicle (water; 100 ul/mouse/Day) for 14 days.
as §1
FIG. 6 illustrates a method of using Nε-Methyl-L-lysine to reduce the total mass of subcutaneous and perigonadal white adipose tissues without reducing total body weight. It is orally administered Nε-Methyl-L-lysine (100 μg Nε-Methyl-L-lysine/g body weight/per day, body weights before treatment, body weights 7 days after treatment, body weights 14 days after treatment) into eight weeks old male C57/BL6 mice for fourteen days. […] Data are presented as mean±SEM and significance is calculated by one-way ANOVA followed by Tukey's multiple comparison test. *P<0.05. **P<0.01.

[3] = system: differentiated 3T3-L1 adipocytes; assay: Cell differentiation experiment: Oil Red-O lipid staining and Ucp1 qPCR; type: cell-based; conditions: 150 μM
Protocol: The differentiation of 3T3-L1 cells was performed by using 3T3-L1 DIFFERENTIATION KIT (DIF001, Merck). After differentiation, cells were maintained in a complete medium containing […] Nε-Methyl-L-lysine and vehicle control for 7 days before the harvest. After treatments, cells were subjected to RNA extraction and qPCR analysis of Ucp1 and Cpt1b mRNA expression. For quantifying the lipid accumulation in cells, cells were fixed with in 4% neutral-buffered formalin and stained with Oil Red-O reagent.
FIG. 5 illustrates a method of using Nε-Methyl-L-lysine to inhibit lipid storage and promote adipose browning in differentiated 3T3-L1 adipocytes in accordance with some embodiments. 3T3-L1 cells (SP-L1-F) are purchased from a commercial available source. It is maintained and differentiated 3T3-L1 preadipocytes. After differentiation, differentiated 3T3-L1 adipocytes are treated by post-differentiation medium containing vehicle (H2O) or Nε-Methyl-L-lysine (150 μM). […] Data are collected from three independent experiments (FIGS. 5a and 5b) and presented as mean±SEM. Mann-Whitney t-tests are used to indicate significant differences between groups. *P<0.05. **P<0.01. ****P<0.0001.

[4] = system: CDAHFD-induced NASH and liver fibrosis; assay: NASH and liver fibrosis test (CDAHFD-fed mice); type: in vivo, male C57BL/6J mice
Protocol: as §2
Groups of 6-week-old male C57BL/6J mice were fed in choline-deficient, L-amino acid-defined, high-fat diet (CDAHFD; #A06071302) purchased from Research Diets (New Brunswick, NJ, USA) or chow diet for 4 weeks. After two weeks of CDAHFD treatment, mice were orally administrated L-lysine (150 mM), Nε-Methyl-L-lysine (150 mM) (100 ul/mouse/Day) or vehicle (water; 100 ul/mouse/Day) for 14 days with continuing CDAHFD treatment. Bodyweight was measured weekly. After sacrifice, the serum of mice was collected and stored at −80° ° C. The serum levels of aspartate aminotransferase (AST) and alanine aminotransferase (ALT) were measured with biochemistry slides for a chemistry analyzer (FUJI DRI-CHEM 4000i, Fujifilm Corporation, Japan). For hepatic fibrosis staining, the 5 μm FFPE liver sections were deparaffinated and stained with a Trichrome staining kit according to the manufacturer's instructions.
8-weeks old male C57BL/6 mice are fed with a choline-deficient, L-amino acid-define, high-fat diet (CDAHFD) (Research Diet, Inc. […]) for 4 weeks to induce NASH and liver fibrosis. During the third and fourth week of CDAHFD treatment, it is orally administered Nε-Methyl-L-lysine (100 μg Nε-Methyl-L-lysine/g body weight/per day) into mice for fourteen days. […] Data are presented as mean±SEM. Kruskal-Wallis test is used in FIG. 4 (a and b) Mann-Whitney t-tests are used in FIG. 4 (c and d) to indicate significant differences between groups. *P<0.05. *P<0.005. *P<0.0005. *P<0.00005.

[5] = 100 μg/g body weight/per day oral, fourteen days, vs vehicle
[6] = CDAHFD 4 weeks, oral treatment during third and fourth week

## Cl.O=C1/C(=C/c2ccccc2)C(NC2CCCCC2)c2ccccc21 (mixture of isomers) [(E/Z)-BCI hydrochloride]
DUSP6 / cold microbiota
  abundance of Lachospiraceae bacterium, Marvinbryantia uncultured bacterium, Peptococcaceae uncultured bacterium, Bifidobacterium pseudolongum and Gordonnibacter uncultured bacterium: significantly regulates the abundance

## CNCCCC[C@H](N)C(=O)O [Nε-Methyl-L-lysine]
Gut microbiota; [5]
  number of bacteria classified in the Actinobacteria phylum in gut: capable of increasing the number
  number of bacteria classified in the Bacilli class in gut: capable of increasing the number
  number of bacteria classified in the Bacteroidia phylum in gut: capable of increasing the number
  number of bacteria classified in the Bifidobacterium genus in gut: capable of increasing the number
  number of bacteria classified in the Coriobacteriia class in gut: capable of increasing the number
  number of bacteria classified in the Lactobacillus genus in gut: capable of increasing the number
  number of bacteria classified in the Saccharimonadia class in gut: capable of increasing the number
  number of bacteria classified in the Verrucomicrobiota phylum in gut: capable of increasing the number
  total bacterial load: capable of increasing the total bacterial load
Gut microbiota; FIG. 8j
  number or relative percentage of Akkernmansia muciniphilla in gut: increase the number or relative percentage
Ucp1 and Cpt1b
  expression of Cpt1b (β-oxidation marker gene) in pWAT: significantly induced the expression
  expression of Ucp-1 (browning marker gene) in pWAT: significantly induced the expression
Ucp1 and Cpt1b; listed as Nε-Methyl−1-lysine
  expression of Cpt1b (β-oxidation marker gene) in pWAT: enhanced the expression
  expression of Ucp-1 (browning marker gene) in pWAT: enhanced the expression
[1]; Adiposoft software
  mean adipocyte area and distribution of adipocyte size of pWAT and iWAT: significantly reduced
[1]; H&E sections
  adipocyte size in iWAT (histological examination): significantly reduced adipocyte size
  adipocyte size in pWAT (histological examination): significantly reduced adipocyte size
[2]
  sensitivity of visceral pWAT versus subcutaneous iWAT to the substance: higher sensitivity
  total mass of iWAT (subcutaneous white adipose tissues): dramatically reduced
  total mass of pWAT (perigonadal white adipose tissues): dramatically reduced
[2]; 150 mM 100 ul/mouse/Day (100 μg/g body weight/per day), vs vehicle or L-lysine
  body weight: did not significantly change the body weight; also recorded: did not change the mice body weights
[3]; vs vehicle (H2O)
  lipid storage (oil-red O staining): significantly reduce lipid storage
[3]; vs vehicle-treated cells
  browning marker Ucp-1 expression: significantly induce
[4]; [6]
  serum ALT level, CDAHFD compared with chow-diet fed mice: significantly increased
[4]; mice fed with a CDAHFD
  reducing AST/ALT ratio, compared with lysine: better effect than lysine
  reducing serum AST level, compared with lysine: better effect than lysine
[4]; mice fed with a CDAHFD, oral 14 days
  liver lipid droplets: promising effect on reducing
[4]; mice fed with a CDAHFD, oral 14 days, trichrome stain
  liver fibrosis: promising effect on reducing

## NCCCC[C@H](N)C(=O)O [L-lysine]
[2]
  total mass of iWAT (subcutaneous white adipose tissues): did not show significant effects
  total mass of pWAT (perigonadal white adipose tissues): did not show significant effects
[4]; [6]
  serum ALT level, CDAHFD compared with chow-diet fed mice: significantly increased
  serum AST level, CDAHFD compared with chow-diet fed mice: significantly increased
